Test results from publication PMC6259751, “Investigating Spectrum of Biological Activity of 4- and 5-Chloro-2-hydroxy-N-[2-(arylamino)-1-alkyl-2-oxoethyl]benzamides” (Molecules, 2011).
≈ marks a conversion by molar mass, not a printed value. Where “and” joins values, the source holds several entries; their conditions need not be identical. Identical values can stand only once. Like-named read-outs stand apart in the source and are kept apart here.

Key:
[1] = system: Mycobacterium tuberculosis MTB CNCTC My 331/88; assay: In vitro antimycobacterial evaluation; type: cell-based; conditions: IC90 value
[2] = system: Enterococcus sp. J 14365/08; assay: In vitro antibacterial susceptibility testing (broth microdilution); conditions: read-out: MIC EF
[3] = system: Mycobacterium avium MA CNCTC My 330/88; assay: In vitro antimycobacterial evaluation; type: cell-based; conditions: IC90 value
[4] = system: photosynthetic electron transport (PET) in spinach chloroplasts; assay: Inhibition of photosynthetic electron transport (PET) in spinach chloroplasts; type: biochemical, Spinacia oleracea L.; conditions: DCPIP photoreduction
Description: Chloroplasts were prepared from spinach (Spinacia oleracea L.) according to Masarovicova and Kralova. The inhibition of photosynthetic electron transport (PET) in spinach chloroplasts was determined spectrophotometrically (Genesys 6, Thermo Scientific, USA), using an artificial electron acceptor 2,6-dichlorophenol-indophenol (DCIPP) according to Kralova et al., and the rate of photosynthetic electron transport was monitored as a photoreduction of DCPIP. The measurements were carried out in phosphate buffer (0.02 mol/L, pH 7.2) containing sucrose (0.4 mol/L), MgCl2 (0.005 mol/L) and NaCl (0.015 mol/L). The chlorophyll content was 30 mg/L in these experiments and the samples were irradiated (~100 W/m^2) from 10 cm distance with a halogen lamp (250 W) using a 4 cm water filter to prevent warming of the samples. The studied compounds were dissolved in DMSO due to their limited water solubility. […] The inhibitory efficiency of the studied compounds was expressed by IC50 values, i.e. by molar concentration of the compounds causing 50% decrease in the oxygen evolution rate relative to the untreated control.

[5] = system: methicilin resistant Staphylococcus aureus H 5996/08; assay: In vitro antibacterial susceptibility testing (broth microdilution)
[6] = Lipophilicity determination by RP-HPLC (capacity factor k / log k); type: physicochemical; conditions: C18 column, MeOH 70% / H2O 30%, isocratic
Description: Hydrophobicities (log P/Clog P) of compounds 8 and 9 were calculated using two commercially available programs (ChemOffice Ultra 10.0 and ACD/LogP) and measured by means of RP-HPLC determination of capacity factors k with subsequent calculation of log k. The procedure was performed under isocratic conditions with methanol as an organic modifier in the mobile phase using an end-capped non-polar C18 stationary RP column. The results are shown in Table 1 and illustrated in Figure 1.
A Waters Alliance 2695 XE HPLC separation module and a Waters Photodiode Array Detector 2996 (Waters Corp., Milford, MA, USA) were used. A Symmetry® C18 5 μm, 4.6 × 250 mm, Part No. WAT054275 (Waters Corp., Milford, MA, USA) chromatographic column was used. The HPLC separation process was monitored by Empower™ 2 Chromatography Data Software, Waters 2009 (Waters Corp., Milford, MA, USA). A mixture of MeOH p.a. (70%) and H2O-HPLC – Mili-Q Grade (30%) was used as a mobile phase. The total flow of the column was 1.0 mL/min, injection volume, 30 μL, column temperature, 30 °C and sample temperature, 10 °C. The detection wavelength of 210 nm was chosen. The KI methanolic solution was used for the dead time (tD) determination. Retention times (tR) were measured in minutes. The capacity factors k were calculated using the Empower™ 2 Chromatography Data Software according to formula k = (tR - tD)/tD, where tR is the retention time of the solute, whereas tD denotes the dead time obtained using an unretained analyte. Log k, calculated from the capacity factor k, is used as the lipophilicity index converted to log P scale.

[7] = system: Mycobacterium kansasii MK CNCTC My 235/80; assay: In vitro antimycobacterial evaluation; type: cell-based; conditions: IC90 value
[8] = system: Staphylococcus epidermidis H 6966/08; assay: In vitro antibacterial susceptibility testing (broth microdilution)
[9] = system: Trichophyton mentagrophytes 445; assay: In vitro antifungal susceptibility testing (broth microdilution); type: cell-based; conditions: M38-A for moulds, IC50 value, read-out: MIC TM
[10] = system: Staphylococcus aureus CCM 4516/08; assay: In vitro antibacterial susceptibility testing (broth microdilution); conditions: read-out: MIC SA
Candida tropicalis 156 = assay: In vitro antifungal susceptibility testing (broth microdilution); type: cell-based; conditions: M27-A2 for yeasts, IC80 value
[11] = H6966/08, 24 h, read-out: MIC SE
[12] = H6966/08, 48 h, read-out: MIC SE

SMILES | MIC ([1]; 14h) | MIC ([1]; 21h) | MIC ([2]; SP.J14365/08, 24 h) | MIC ([2]; SP.J14365/08, 48 h) | MIC ([3]; 14h) | MIC ([3]; 21h) | IC50 [4] | MIC ([5]; MRSA, 24 h, read-out: MIC MRSA) | MIC ([5]; MRSA, 48 h, read-out: MIC MRSA) | log k [6] | MIC ([7]; 14h) | MIC ([7]; 21h) | MIC [8, 11] | MIC [8, 12] | MIC ([9]; 72h) | MIC ([9]; 120h) | MIC ([10]; CCM4516, 24 h) | MIC ([10]; CCM4516, 48 h) | MIC (Candida tropicalis 156; 24h) | MIC (Candida tropicalis 156; 48h) | other results
O=C(CNC(=O)c1cc(Cl)ccc1O)Nc1cccc(Cl)c1 [8a] | 125 µM (≈ 42.4 µg/mL) | 125 µM (≈ 42.4 µg/mL) | > 250 µM | > 250 µM | 62.5 µM (≈ 21.2 µg/mL) | 62.5 µM (≈ 21.2 µg/mL) | 379 µM | > 250 µM | > 250 µM | 0.2439 | 250 µM (≈ 84.8 µg/mL) | 250 µM (≈ 84.8 µg/mL) | > 250 µM | > 250 µM | 125 µM (≈ 42.4 µg/mL) | 125 µM (≈ 42.4 µg/mL) | > 250 µM | > 250 µM | 125 µM (≈ 42.4 µg/mL) | 125 µM (≈ 42.4 µg/mL) | 
CC(C)[C@H](NC(=O)c1cc(Cl)ccc1O)C(=O)Nc1cccc(Cl)c1 [8d] | 32 µM (≈ 12.2 µg/mL) | 62.5 µM (≈ 23.8 µg/mL) | > 125 µM | > 125 µM | 125 µM (≈ 47.7 µg/mL) | 125 µM (≈ 47.7 µg/mL) | 13.8 µM | > 125 µM | > 125 µM | 0.6124 | 62.5 µM (≈ 23.8 µg/mL) | 125 µM (≈ 47.7 µg/mL) | > 125 µM | > 125 µM | > 125 µM | > 125 µM | > 125 µM | > 125 µM | > 125 µM | > 125 µM | 
CC(C)[C@@H](NC(=O)c1cc(Cl)ccc1O)C(=O)Nc1cccc(Cl)c1 [8e] | 32 µM (≈ 12.2 µg/mL) | 62.5 µM (≈ 23.8 µg/mL) | 62.5 µM (≈ 23.8 µg/mL) | 250 µM (≈ 95.3 µg/mL) | 62.5 µM (≈ 23.8 µg/mL) | 125 µM (≈ 47.7 µg/mL) | 20.4 µM | 31.2 µM (≈ 11.9 µg/mL) | 31.2 µM (≈ 11.9 µg/mL) | 0.61 and 0.6114 | 62.5 µM (≈ 23.8 µg/mL) | 125 µM (≈ 47.7 µg/mL) | 31.2 µM (≈ 11.9 µg/mL) | 31.2 µM (≈ 11.9 µg/mL) | 125 µM (≈ 47.7 µg/mL) | 125 µM (≈ 47.7 µg/mL) | 15.6 µM (≈ 5.96 µg/mL) | 15.6 µM (≈ 5.96 µg/mL) | 15.6 µM (≈ 5.96 µg/mL) | 62.5 µM (≈ 23.8 µg/mL) | 
O=C(N[C@@H](Cc1ccccc1)C(=O)Nc1cccc(Cl)c1)c1cc(Cl)ccc1O [8f, N-{(1S)-1-benzyl-2-[(3-chlorophenyl)amino]-2-oxoethyl}-5-chloro-2-hydroxybenz-amide] | 62.5 µM (≈ 26.8 µg/mL) | 125 µM (≈ 53.7 µg/mL) | > 500 µM | > 500 µM | 125 µM (≈ 53.7 µg/mL) | 250 µM (≈ 107 µg/mL) | 12.3 µM | > 500 µM | > 500 µM | 0.70 and 0.7098 | 62.5 µM (≈ 26.8 µg/mL) | 125 µM (≈ 53.7 µg/mL) | > 500 µM | > 500 µM | 125 µM (≈ 53.7 µg/mL) | 125 µM (≈ 53.7 µg/mL) | > 500 µM | > 500 µM | 31.2 µM (≈ 13.4 µg/mL) | 125 µM (≈ 53.7 µg/mL) | 
C[C@@H](NC(=O)c1ccc(Cl)cc1O)C(=O)Nc1ccc(Cl)cc1 [9b, 4-Chloro-N-{(1R)-2-[(4-chlorophenyl)-amino]-1-methyl-2-oxoethyl}-2-hydroxy benzamide] | 32 µM (≈ 11.3 µg/mL) | 62.5 µM (≈ 22.1 µg/mL) | 500 µM (≈ 177 µg/mL) | 500 µM (≈ 177 µg/mL) | 125 µM (≈ 44.2 µg/mL) | 125 µM (≈ 44.2 µg/mL) |  | 7.81 µM (≈ 2.76 µg/mL) | 7.81 µM (≈ 2.76 µg/mL) | 0.4921 | 125 µM (≈ 44.2 µg/mL) | 125 µM (≈ 44.2 µg/mL) | 1.95 µM (≈ 0.689 µg/mL) | 1.95 µM (≈ 0.689 µg/mL) | 250 µM (≈ 88.3 µg/mL) | 250 µM (≈ 88.3 µg/mL) | 7.81 µM (≈ 2.76 µg/mL) | 7.81 µM (≈ 2.76 µg/mL) | 250 µM (≈ 88.3 µg/mL) | 250 µM (≈ 88.3 µg/mL) | MIC ([5]; read-out: activity against methicillin-resistant Staphylococcus aureus (MIC)): 7.81 µM (≈ 2.76 µg/mL); MIC ([8]; H6966/08, read-out: activity against S. epidermidis (MIC)): 1.95 µM (≈ 0.689 µg/mL)
CC(C)[C@@H](NC(=O)c1ccc(Cl)cc1O)C(=O)Nc1ccc(Cl)cc1 [9d] | 62.5 µM (≈ 23.8 µg/mL) | 62.5 µM (≈ 23.8 µg/mL) | > 500 µM | > 500 µM | 62.5 µM (≈ 23.8 µg/mL) | 62.5 µM (≈ 23.8 µg/mL) |  | > 500 µM | > 500 µM | 0.6832 | 62.5 µM (≈ 23.8 µg/mL) | 62.5 µM (≈ 23.8 µg/mL) | > 500 µM | > 500 µM | 7.81 µM (≈ 2.98 µg/mL) | 7.81 µM (≈ 2.98 µg/mL) | > 500 µM | > 500 µM | > 125 µM | > 125 µM | 
O=C(N[C@@H](Cc1ccccc1)C(=O)Nc1ccc(Cl)cc1)c1ccc(Cl)cc1O [9e] | 32 µM (≈ 13.7 µg/mL) | 32 µM (≈ 13.7 µg/mL) | > 500 µM | > 500 µM | 32 µM (≈ 13.7 µg/mL) | 62.5 µM (≈ 26.8 µg/mL) |  | > 250 µM | > 250 µM | 0.7540 | 32 µM (≈ 13.7 µg/mL) | 62.5 µM (≈ 26.8 µg/mL) | > 250 µM | > 250 µM | 125 µM (≈ 53.7 µg/mL) | 125 µM (≈ 53.7 µg/mL) | > 250 µM | > 250 µM | 125 µM (≈ 53.7 µg/mL) | 125 µM (≈ 53.7 µg/mL) | 
CC(C)[C@@H](NC(=O)c1ccc(Cl)cc1O)C(=O)Nc1ccc(Br)cc1 [9g] |  |  |  |  |  |  | 24 µM |  |  | 0.7353 |  |  |  |  |  |  |  |  |  |  | 
CC(C)[C@H](NC(=O)c1ccc(Cl)cc1O)C(=O)Nc1ccc(C(F)(F)F)cc1 [9h] |  |  |  |  |  |  | 14.2 µM |  |  | 0.7892 |  |  |  |  |  |  |  |  |  |  | 
Cc1ccc(NC(=O)[C@@H](NC(=O)c2ccc(Cl)cc2O)C(C)C)cc1 [9i] |  |  |  |  |  |  | 37.3 µM |  |  | 0.5902 |  |  |  |  |  |  |  |  |  |  | 
COc1ccc(NC(=O)[C@@H](NC(=O)c2ccc(Cl)cc2O)C(C)C)cc1 [9j] |  |  |  |  |  |  | 35.7 µM |  |  | 0.3623 |  |  |  |  |  |  |  |  |  |  | 
